Data: US8389534B2, “Pyrimidine non-classical cannabinoid compounds and related methods of use” (The University of Tennessee Research Foundation, priority 2008, dated 2013)

Assays:
[1] = test system: glioblastoma brain cancer cell line LN-229; test: Cytotoxicity assay (CCK8 viability); format: cell-based; conditions: Homo sapiens, cytotoxicity against LN-229 cells, 18 hours incubation
Description: Cytoxocity assay: Cells were seeded on a 96 well polystyrene plate in full serum media at a density of 75,000 cells per milliliter, 100 μL per well. Plates were incubated at 37° C. and 5% CO2 for 24 hours to allow cell attachment. Drug solutions were prepared in DMSO at 100× concentration and mixed 1:100 in 1% FBS media to yield the desired concentration. Drug-media mixtures were vortexed immediately prior to administration to cells. Full serum media was removed and replaced with drug-media mixtures and incubated for 18 hours. 10 μL of Cell Counting Kit 8 (CCK8, Dojindo# CK04-11) was added to each well to colormetrically assess viability. After 2-4 hours of incubation with the CCK8 dye, absorbance was read at 450 nm by a BioTek Synergy 2 plate reader.
The cytotoxicity of selected compounds against the glioblastoma brain cancer cell line LN-229 is depicted in Table 1.

melting point [°C] | SMILES | EC50 [1] [µM]
336.6 | Oc1nc(Cc2ccccc2)nc(O)c1-c1ccccc1 | –
– | CC(C)(c1nc(O)c(-c2cc(Cl)cc(Cl)c2)c(O)n1)C1CCCCC1 [Compound 8g, 2-(2-Cyclohexylpropan-2-yl)-5-(3,5-dichlorophenyl)pyrimidine-4,6-diol] | 23.5
– | CC(C)(c1ccccc1)c1nc(O)c(-c2cc(Cl)cc(Cl)c2)c(O)n1 [Compound 8h, 5-(3,5-Dichlorophenyl)-2-(2-phenylpropan-2-yl)pyrimidine-4,6-diol] | 51.8
– | CCCCCCC(C)(C)c1nc(O)c(-c2cccc(C)c2)c(O)n1 [Compound 8j, 2-(2-Methyloctan-2-yl)-5-m-tolylpyrimidine-4,6-diol] | 55.4
